Data: patent US20160009752A1, “[…]-OXIMINO-AMINOALKYLETHERS AND PROCESS FOR PREPARATION THEREOF, USEFUL AS ANTIDIABETIC AND […] AGENTS” (COUNCIL OF SCIENTIFIC & INDUSTRIAL RESEARCH, priority 2013, published 2016)
Marks after values point to notes of the source that are not given here.

Columns and labels:
[1] = test system: STZ-induced diabetic rats; test: Streptozotocin-induced diabetic rat model (STZ); assay type: in vivo; conditions: 100 mg/kg
Method: Male albino rats (Sprague Dawley Strain) of body weight 160±20 g were procured from the colony of CDRI Animal House. 4 to 5 animals were kept in one polypropylene cage and acclimatized for one week in the new environment. The animals were made diabetic by injecting streptozotocin (STZ) intraperitoneally to the overnight starved animals at a dose of 60 mg/kg prepared in 100 mM citrate buffer (pH 4.5). Fasting blood glucose level of each animal was measured after 48 hours post STZ injection by Glucostrips (Roche) using Glucometer (ACCU-CHEK II; Roche Diagnostics, USA) and animals showing blood glucose level above 280 mg/dl were considered as diabetic. The diabetic rats with fasting blood glucose values varying between 280-450 mg/dl were included in this study. Animals were divided into groups consisting of five animals in each. Group one was considered as a control group, where as the other groups were termed as experimental groups. Rats of experimental group were usually given 100 mg/kg body weight of the test samples unless stated otherwise and standard drug i.e. metformin, respectively. The test samples and standard drug i.e. metformin was always prepared in the vehicle 1% gum acacia. 30 min post administration of the test samples/vehicle/standard drug, blood glucose levels of the animals of all the groups were measured at 30, 60, 90, 120, 180, 240, 300 and 1440 min. Food (not water) was removed from the cages during the experimental period. A plot was drawn between time and blood glucose levels on x and y axis, respectively and the area under curve (AUC) between 0 to 300 min were calculated of each group. The percent decline in AUC of the experiment group compared to sham treated control group termed as % antihyperglycaemic activity. Statistical comparison between the groups was done by employing Student's ‘t’ test.

sucrose loaded rat = test: Sucrose loaded rat model (SLM), oral tolerance test; assay type: in vivo; parameters: % Antihyperglycemic activity SLM: concentration or dose not given beside the values; conditions: for % Antihyperglycemic activity SLM: Table 2, sucrose loaded rat
Source text: On the day of experiment blood glucose of all the overnight fasted animals was checked by Glucostrips (Roche) using Glucometer (ACCU-CHEK II; Roche Diagnostics, USA). […] Animals were divided into groups consisting of five animals in each. […] The test compounds and standard drug was always prepared in the vehicle 1% gum acacia. […] Food (not water) was removed from the cages during the experimental period. […] Comparing the AUC of test sample or drug treated groups compared to control group determined the percent improvement in OGTT by test sample and standard drugs and termed as antihyperglycaemic activity. Statistical analysis between the groups was done by employing Students t test

[2] = test system: sucrose challenged low dosed STZ-induced diabetic rats; test: Sucrose challenged low dosed streptozotocin-induced diabetic rats (STZ-S); assay type: in vivo, rat; conditions: for % Antihyperglycemic activity STZ-S 0-5 hr / % Antihyperglycemic activity STZ-S 0-24 hr: Table 2
Method: Fasting blood glucose level of each animal was measured after 48 hours post STZ injection by Glucostrips (Roche) using Glucometer (ACCU-CHEK II; Roche Diagnostics, USA) and animals showing blood glucose level above 280 mg/dl were considered as diabetic. The diabetic rats with fasting blood glucose values varying between […] were included in this study. Animals were divided into groups consisting of five animals in each. Group one was considered as a control group, where as the other groups were termed as experimental groups. […] The test samples and standard drug (Metformin) was always prepared in the vehicle 1% gum acacia. […] Food (not water) was removed from the cages during the experimental period. […] The percent decline in AUC of the experiment group compared to sham treated control group termed as % antihyperglycaemic activity. Statistical analysis between the groups was done by employing Students t test.

[3] = test system: high fructose high fat fed Syrian golden hamsters; test: Antidyslipidemic activity in high fructose high fat fed Syrian golden hamsters; assay type: in vivo
Method: Male Syrian golden hamsters weighing 100-120 g were divided into groups each containing six animals. Dyslipidemia was produced by feeding the animals with high fructose high fat diet (60% fructose, 13% fat) for 30 to 40 days. Dyslipidemic hamsters were divided into groups based on their Serum lipid profile. The dyslipidemic animals had free access to HFD and water throughout the experimental period. The fine suspension of 14b was fed orally at a dose of 30 mg/kg for 7 days to the animals. Control animals were given drug vehicle only, served as sham treated control. Body weight and diet intake of each animal group were recorded daily to check the effect of the test samples on food intake and body weight of the animals. At the end of the experiment period i.e. on day 8th, the blood of each animal was withdrawn from retro-orbital plexus. After keeping the tubes for 15 min. in cold, Serum was separated. Biochemical analysis of Serum was performed on the same day for triglycerides (TG), total cholesterol (TC) and HDL-cholesterol and LDL-cholesterol contents using Cobas Integra 400 plus analyzer kits. All statistical analysis will be performed with Graph Pad Prism Software. One way ANOVA, all pair wise multiple comparison procedure (Tukey test). Data will be reported as mean±SEM.

## CN(C)C(=N)N=C(N)N [Metformin, reference compound]
[1]
  Blood glucose level, 0 min post sucrose load: 358.4 ± 14.5 mg/dL
  Blood glucose level, 30 min post sucrose load: 450.0 ± 21.8 mg/dL
  Blood glucose level, 60 min post sucrose load: 419.0 ± 10.5 mg/dL
  Blood glucose level, 90 min post sucrose load: 399.0 ± 7.7 mg/dL
  Blood glucose level, 120 min post sucrose load: 351.0 ± 16.0 mg/dL
  Blood glucose level, 180 min post sucrose load: 349.6 ± 10.1 mg/dL
  Blood glucose level, 240 min post sucrose load: 337.0 ± 7.7 mg/dL
  Blood glucose level, 300 min post sucrose load: 299.8 ± 5.0 mg/dL
  Blood glucose level, 1440 min post sucrose load: 445.6 ± 13.9 mg/dL
Sucrose loaded rat; 100 mg/kg
  Blood glucose profile, 0 min post glucose load: 94.8 ± 2.1 mg/dL
  Blood glucose profile, 30 min post glucose load: 111.4 ± 7.8 mg/dL
  Blood glucose profile, 60 min post glucose load: 105.8 ± 2.1 mg/dL
  Blood glucose profile, 90 min post glucose load: 94.0 ± 2.0 mg/dL
  Blood glucose profile, 120 min post glucose load: 84.2 ± 1.3 mg/dL
Sucrose loaded rat; 100 mg/kg, AUC 0-120 min vs control, normal rats
  % Antihyperglycaemic activity (improvement in OGTT post sucrose load): 24.4*** %
Sucrose loaded rat
  % Antihyperglycemic activity SLM: 21.1%
[2]; 100 mg/kg
  % Antihyperglycemic activity 0-300 min: 23.7%**
  % Antihyperglycemic activity 0-1440 min: 23.1%**
  Blood glucose level, 0 min post sucrose load: 222.2 ± 19.9 mg/dL
  Blood glucose level, 30 min post sucrose load: 457.4 ± 17.2 mg/dL
  Blood glucose level, 60 min post sucrose load: 524.2 ± 18.9 mg/dL
  Blood glucose level, 90 min post sucrose load: 468.2 ± 11.3 mg/dL
  Blood glucose level, 120 min post sucrose load: 416.0 ± 12.2 mg/dL
  Blood glucose level, 180 min post sucrose load: 373.6 ± 11.4 mg/dL
  Blood glucose level, 240 min post sucrose load: 345.0 ± 10.6 mg/dL
  Blood glucose level, 300 min post sucrose load: 310.8 ± 2.6 mg/dL
  Blood glucose level, 1440 min post sucrose load: 392.8 ± 9.9 mg/dL
[2]; 100 mg/kg, listed as metformin
  % Antihyperglycemic activity 0-300 min: 23.7%
  % Antihyperglycemic activity 0-1440 min: 23.1%
[2]
  % Antihyperglycemic activity STZ-S 0-5 hr: 25.8%
  % Antihyperglycemic activity STZ-S 0-24 hr: 33.2%

## C/C(=N\OCC(O)CNC(C)C)C1CCC2C3CC=C4CC(O)CCC4(C)C3CCC12C (stereo not drawn) [Compound 16b, 3β-Hydroxy-pregna-5-en-20-one-O-[2-hydroxy-3-iso-propylamino-Propyl)-oxime]
Sucrose loaded rat
  % Antihyperglycemic activity SLM: 13.6%

## COc1ccccc1N1CCN(CC(O)CO/N=C(/C)C2CCC3C4CC=C5CC(O)CCC5(C)C4CCC23C)CC1 (stereo not drawn) [Compound 16d, 3β-Hydroxy-pregna-5-en-20-one-O-{2-hydroxy-3-[4-(2-methoxyphenyl)-Piperzin-1-yl]-propyl}-oxime]
other
  melting point: 145 to 149 °C
Sucrose loaded rat
  % Antihyperglycemic activity SLM: 13.9%

## C/C(=N\OCC(O)CNC(C)(C)C)[C@H]1CC[C@H]2[C@@H]3CC=C4C[C@@H](O)CC[C@]4(C)[C@H]3CC[C@]12C (stereo partly drawn) [Compound 16a, 3β-Hydroxy-pregna-5-en-20-one-O-[2-hydroxy-3-tert.-butylamino-propyl]-oxime]
other
  melting point: > 200 °C
Sucrose loaded rat
  % Antihyperglycemic activity SLM: 37.7%

## CC(C)OC(=O)C(C)(C)Oc1ccc(C(=O)c2ccc(Cl)cc2)cc1 [Fenofibrate, reference compound]
[3]; 30 mg/kg oral
  enhancement of lipoprotein lipase: 21.1%
  enhancement of serum HDL-cholesterol: 9.8%
  lowering of LDL-cholesterol (LDL-C) level: 30.1%
  lowering of serum glycerol level: 22.4%
  lowering of serum triglycerides level (TG): 28.9%
[3]; 30 mg/kg p.o., 7 days
  Glycerol, change vs HFD control (in parentheses): (−22.4)* %
  HDL-C, change vs HFD control (in parentheses): (+9.80) %
  LDL-C, change vs HFD control (in parentheses): (−30.1)** %
  Lipoprotein lipase, change vs HFD control (in parentheses): (+21.1)* %
  TG, change vs HFD control (in parentheses): (−28.9)* %
[3]; 30 mg/kg p.o., 7 days, serum
  Chol: 277.8 ± 22.3 mg/dL
  HDL-C: 156.8 ± 12.8 mg/dL
  Lipoprotein lipase: 36.8 ± 3.60 U/L
  NEFA: 5.40 ± 0.30 mmol/L
  TG: 529.8 ± 30.7 mg/dL

## C/C(=N\OCCN1CCCC1)[C@H]1CC[C@H]2[C@@H]3CC=C4C[C@@H](O)CC[C@]4(C)[C@H]3CC[C@]12C [Compound 14a, 3β-Hydroxy-pregna-5-en-20-one-O-(2-pyrrolidin-1-yl-ethyl)-oxime]
other
  melting point: 140 to 142 °C
Sucrose loaded rat
  % Antihyperglycemic activity SLM: 42.4%
Sucrose loaded rat; all the models including db/+ mice models
  anti-diabetic activity, in words: better anti-diabetic activity
[2]
  % Antihyperglycemic activity STZ-S 0-5 hr: 9.96%
  % Antihyperglycemic activity STZ-S 0-24 hr: 3.07%

## C/C(=N\OCCN1CCCCC1)C1=CC[C@H]2[C@@H]3CC=C4C[C@@H](O)CC[C@]4(C)[C@H]3CC[C@]12C [Compound 11a, 3β-Hydroxy-pregna-5,16-dien-20-one-O-(2-piperidinyl-ethyl)-oxime]
other
  melting point: 135 to 138 °C
Sucrose loaded rat
  % Antihyperglycemic activity SLM: 27.15%

## C/C(=N\OCCN1CCOCC1)C1=CC[C@H]2[C@@H]3CC=C4C[C@@H](O)CC[C@]4(C)[C@H]3CC[C@]12C [Compound 11c, 3β-Hydroxypregna-5,16-dien-20-one-O-(2-morpholin-4-yl-ethyl)-oxime]
Sucrose loaded rat
  % Antihyperglycemic activity SLM: 10.2%

## C/C(=N/OCC(O)CN1CCN(c2ccccc2)CC1)[C@H]1CC[C@H]2[C@@H]3CC=C4C[C@@H](O)CC[C@]4(C)[C@H]3CC[C@]12C (stereo partly drawn) [Compound 16c, 3β-Hydroxy-pregna-5-en-20-one-O-[2-hydroxy-3-(4-phenyl-piperazin-1-yl)-propyl]-oxime]
Sucrose loaded rat
  % Antihyperglycemic activity SLM: 17.8%

## C/C(=N\OCCN1CCCCCC1)C1=CC[C@H]2[C@@H]3CC=C4C[C@@H](O)CC[C@]4(C)[C@H]3CC[C@]12C [Compound 11b, 3β-Hydroxypregna-5,16-dien-20-one-O-(2-azepan-1-yl-ethyl)-oxime]
other
  melting point: 127 to 130 °C
Sucrose loaded rat
  % Antihyperglycemic activity SLM: 16.5%

## CCN(CC)CCO/N=C(\C)C1=CC[C@H]2[C@@H]3CC=C4C[C@@H](O)CC[C@]4(C)[C@H]3CC[C@]12C [Compound 11d, 3β-Hydroxypregna-5,16-dien-20-one-O-(2-diethylamino-ethyl)-oxime]
other
  melting point: 156 to 160 °C
Sucrose loaded rat
  % Antihyperglycemic activity SLM: 13.1%

## CC(=NO)[C@H]1CC[C@H]2[C@@H]3CC=C4C[C@@H](O)CC[C@]4(C)[C@H]3CC[C@]12C [Compound 10., 3β-hydroxy-pregna-5-en-20-one-oxime]
Sucrose loaded rat
  % Antihyperglycemic activity SLM: 13.9%
